# Experimental data as given in patent publication US5583104A, “Treatment of proliferation of bile duct epithelium” (Mayo Foundation for Medical Research and Education, priority 1993, dated 1996).
# Tested on: human cholangiocarcinoma cell line SK-ChA-1
# Assay: Anti-proliferative MTT assay on human cholangiocarcinoma cell line SK-ChA-1
# Format: cell-based
# Conditions: for inhibiting the growth of the human cholangiocarcinoma cell line: FIGS. 1 and 2, both experiments, non-dose dependent; for Percent Protection, Day 8: first experiment (Table I); for Percent Protection Day 4: second experiment (Table II)
# Procedure: The human cholangiocarcinoma cell line SK-ChA-1 was grown from malignant ascites of a patient with primary adenocarcinoma of the extrahepatic biliary tree. See Knuth, et al. J. of Hepatology 1:579 (1985), hereby incorporated by reference.
# SK-ChA-1 cells were plated (100 μl) into 96-well culture plates (Falcon) at a density of 50,000 cells/ml in Dulbecco's modified Eagle's medium (DMEM/HAMSF12 (50:50)) with 2% fetal calf serum (FCS, Hyclone) and antibiotics (penicillin 100 IU/ml, streptomycin 100 μg/ml and amphotericin B 2.5 μg/ml). After 18 hours, the medium was replaced with fresh medium with or without the two test drugs, natural somatostatin-14 and the somatostatin agonist octreotide. The experiments were performed in triplicate. Wells without the addition of any test drug served as normal controls. All media, with the appropriate concentration of test drug, were changed every two days.
# The amount of viable cells were assayed every two days using 3-(4,5-[…])-2,5-diphenyl tetrazolium (MTT) according to method published by Tada, J. Immunol. Meth. 93:157 (1986), hereby incorporated by reference. Optical density was read by a 96-well automatic microplate reader (molecular Devices) at a test wavelength of 570 nm and a reference wavelength of 630 nm. An experiment had validated the correlation of the MTT assay (r=0.975, p=0.004) with a wide range of cell concentrations (3,000 to 330,000 cells/ml) counted with the hemocytometer. Cell proliferation curves with respect to time and test drug concentration were plotted with control wells as the baseline for comparison.
# Two experiments were performed using this assay. […] The second experiment was performed at concentrations of 10^-5 M to 10^-10 M (in one log increments) and assayed every two days until day 8.
# [1] = drug concentration 1 × 10^-5 M, MTT viable cells vs control wells
# [2] = drug concentration 1 × 10^-10 M
SMILES,inhibiting the growth of the human cholangiocarcinoma cell line,"Percent Protection, Day 8 [1]","Percent Protection, Day 8 (drug concentration 1 × 10^-6 M)","Percent Protection, Day 8 (drug concentration 1 × 10^-7 M)","Percent Protection, Day 8 (drug concentration 1 × 10^-8 M)",Percent Protection Day 4 (drug concentration 1 × 10^-5 M),Percent Protection Day 4 (drug concentration 1 × 10^-6 M),Percent Protection Day 4 (drug concentration 1 × 10^-7 M),Percent Protection Day 4 (drug concentration 1 × 10^-8 M),Percent Protection Day 4 (drug concentration 1 × 10^-9 M),Percent Protection Day 4 [2]
"C[C@@H](O)[C@@H]1NC(=O)[C@H](CCCCN)NC(=O)[C@@H](Cc2c[nH]c3ccccc23)NC(=O)[C@H](Cc2ccccc2)NC(=O)[C@@H](NC(=O)[C@H](N)Cc2ccccc2)CSSC[C@@H](C(=O)N[C@H](CO)[C@@H](C)O)NC1=O [Octreotide, H-D-Phe-Cys-Phe-D-Trp-Lys-Thr-Cys-threoninol]",effective in inhibiting the growth,79.1%,92.2%,78.4%,61.0%,62.6%,52.9%,44.4%,46.8%,61.7%,50.4%
C[C@H](N)C(=O)NCC(=O)N[C@H]1CSSC[C@@H](C(=O)O)NC(=O)[C@H](CO)NC(=O)[C@H]([C@@H](C)O)NC(=O)[C@H](Cc2ccccc2)NC(=O)[C@H]([C@@H](C)O)NC(=O)[C@H](CCCCN)NC(=O)[C@H](Cc2c[nH]c3ccccc23)NC(=O)[C@H](Cc2ccccc2)NC(=O)[C@H](Cc2ccccc2)NC(=O)[C@H](CC(N)=O)NC(=O)[C@H](CCCCN)NC1=O [Somatostatin],effective in inhibiting the growth,94.9%,66.8%,89.9%,–,54.3%,47.5%,42.6%,50.2%,50.4%,62.3%
